Laboratory results from ChEMBL document CHEMBL5380835, “Discovery of Clinically Used Octenidine as NRAS Repressor That Effectively Inhibits NRAS-Mutant Melanoma” (J Med Chem, 2023).
Active and inactive are the calls of the source. The calls are words filed in the database; no cut-off is given here.

Assays:
SK-MEL-2 [1] = experiment: Antiproliferative activity against human SK-MEL-2 cells assessed as inhibition of colony formation at 1.5 uM measured after 10 days by crystal violet staining based assay; assay type: functional, cell-based; details: time 10.0 day
SK-MEL-2 [2] = experiment: Synergistic cytotoxicity against human SK-MEL-2 cells expressing NRAS mutant assessed as combination index measured for 48 hrs in presence of Rapamycin by MTT assay; assay type: functional
SK-MEL-2 [3] = experiment: Synergistic cytotoxicity against human SK-MEL-2 cells expressing NRAS mutant assessed as combination index measured for 48 hrs in presence of MK2206 by MTT assay; assay type: functional
SK-MEL-2 [4] = experiment: Antitumor activity against human SK-MEL-2 cells xenografted in BALB/c nude mouse assessed as tumor growth inhibition at 5 mg/kg/day, ip by electronic caliper method; assay type: functional, organism-based; details: time 30.0 day, TDE = time-dependent effect
SK-MEL-2 [5] = experiment: Antitumor activity against human SK-MEL-2 cells xenografted in BALB/c nude mouse assessed as reduction in tumor weight at 5 mg/kg/day, ip administered for 30 days by electronic caliper method; assay type: functional, organism-based; details: time 30.0 day
SK-MEL-2 [6] = experiment: Antitumor activity against human SK-MEL-2 cells xenografted in BALB/c nude mouse assessed as T/C ratio at 5 mg/kg/day, ip administered for 30 days relative to control; assay type: functional; details: time 30 day
SK-MEL-2 [7] = experiment: Antitumor activity against human SK-MEL-2 cells xenografted in BALB/c nude mouse assessed as tumor growth inhibition at 5 mg/kg/day, ip administered for 30 days relative to control; assay type: functional; details: SK-MEL-2, 720 h, time 30 day, read-out: TGI

## Cn1cnc2c(F)c(Nc3ccc(Br)cc3F)c(C(=O)NOCCO)cc21 [BINIMETINIB]
SK-MEL-2 [1]
  inhibition: Active
SK-MEL-2 [2]
  CI: 0.5
SK-MEL-2 [3]
  CI: 0.5
SK-MEL-2 [4]
  Activity: Tde
SK-MEL-2 [5]
  Activity: Active
SK-MEL-2 [6]
  T/C: 24.8%
SK-MEL-2 [7]
  inhibition in vivo at 5 mg/kg/day: 70.4%
